{"source": "patent US20020177120A1", "about": "“ASSAYS FOR APOTOSIS MODULATORS” (priority 1999, published 2002)", "key": {"caspase-3": {"test_system": "caspase-3", "experiment": "Caspase-3 assay in SAT-reporter-transformed HEK293 cells after apoptosis inducers", "type": "cell-based, human", "details": "confluent HEK293, 1-5 μM staurosporin for 8 hrs."}, "F1-1-42 cells": {"test_system": "F1-1-42 cells", "experiment": "Staurosporin-induced apoptosis in F1-1-42 SAT FRET reporter cells (FRET signal, western blot, caspase-3, morphology)", "type": "cell-based, human", "experimental": "Detecting Intracellular Changes in a FRET Reporter in Cells Undergoing Apoptosis: Having established that SAT reporter protein synthesized in HEK293 cells could be cleaved ex vivo, i.e., in cell lysates by trypsin (above), an initial in vivo intracellular assay was conducted using the selected F1-1-42 clonal cell line and staurosporin to induce apoptosis. […] In these experiments the F1-1-42 cells were plated at a density of 4×10^5 cells/0.5 ml in each well of a 24-well microtiter plate. After overnight incubation, apoptosis was induced by adding staurosporin to a final concentration of 5 μM, and using vehicle (0.25% DMSO) as a negative control. Assays for caspase-3 were used to confirm that apoptosis was induced. […] Subsequent testing determined that significant changes in FRET signal were first detectable at about 8 hours after addition of staurosporin and were maximal by 24 hrs post-induction."}, "F9-1-13 cells": {"test_system": "F9-1-13 cells", "experiment": "Cell-based FRET reporter assay in F9-1-13 (SgAT) cells", "design": "species or system human", "description": "Transfection of pcDNA3VH-SgAT and pcDNA3VH-SnAT into U-138 cells (using methods described above) resulted initially in few colonies and FRET signal was lost in many clones during expansion, however, from among the various subclones the F9-1-13 (pcDNA3VH-SgAT transfected; ATCC No. PTA-84) and F10-24-2 (pcDNA3-SnAT transfected) subclones were eventually expanded and shown to express stable FRET signals. As desired, the FRET signal expressed in F9-1-13 decreased in response to both staurosporin and anti-Fas antibody treatment of cells, while the FRET signal expressed by the F10-24-2 control cells, (i.e., lacking a caspase substrate domain), was unaffected following staurosporin or anti-Fas antibody treatment. […] F9-1-13 therefore appeared suitable for microtiter assays, and perhaps use in HTS assays for screening to identify and select modulators of apoptosis.\nStudies were initiated to adapt the experimental cell-based FRET assay of EXAMPLE 5 to a format suitable for use in high-throughput screening. First, the assay was scaled down from a 24-well to a 96-well plate format. Cells from three different F9 parental cultures were plated in a black-sided 96-well plates (Costar #3904) at a density of 32,000 cells/well (˜1×10^5 cells/cm^2); allowed to adhere overnight; and then the media was replaced with either 100 μl fresh media containing inducer (5 μM staurosporin in 0.25% DMSO vehicle) or 100 μl containing only vehicle (0.25% DMSO). After an overnight incubation, fluorescence measurements were made to evaluate FRET signal changes. […] The assay therefore appeared to be adaptable to a 96-well format but it was not initially clear how signal might be improved to increase the signal-to-background ratio.\nA 96-well FRET assay was evaluated for inter-assay well variability and inter-plate variability. Possible signal drift during measurement of the FRET fluorescence signal was evaluated using one of two different robotics-compatible rapid fluorescence plate readers (SpeedReader or Cytofluor II). After plating at an initial density of about 60,000 cells/well, and overnight culture F9-1-13 cells were treated with 5 μM staurosporin, or vehicle. After an overnight incubation in staurosporin (i.e., 16-24 hrs.), the plates were either washed, or not washed, and then assayed repeatedly over the next 1.5 hours using either of the plate readers. […] However, using the same assay conditions but with anti-Fas antibody as an inducer, different results were recorded. […] The basis for the observed differences in measuring devices is not clear, but may relate to the design of the light source and/or the sensitivity of the detection circuitry in the two different respective fluorescence readers as well as possible different means for optically or digitally subtracting background incident radiation.\nAssay Confirmation: The following experiment was performed to validate the ability of the 96-well FRET assay to detect inhibitors of apoptosis: namely, F9-1-13 cells (n=5 wells) were treated with 50-100 μM Z-VAD-fmk (a broad spectrum caspase inhibitor) or vehicle (n=55) in randomized wells of a 96-well plate. All of these wells, and six additional positive control wells (i.e., lacking the inhibitor), were treated with 5 μM staurosporine in 0.25% DMSO vehicle. Six negative control wells were treated with vehicle only (0.25% DMSO). After overnight incubation, FRET signal changes were evaluated as described above.\nThree alternatives to staurosporine induction were evaluated: serum withdrawal; c2-ceramide treatment; and induction via engagement of the CD95/Fas receptor with anti-Fas antibody. […] To increase the proportion of adherent cells, poly-D-lysine and 0.1% gelatin were evaluated in anti-Fas antibody treated F9-1-13 cells. […] Anti-Fas antibody was therefore chosen as a preferred inducer of apoptosis for high-throughput screening. […]"}}, "data": [{"smiles": "CN[C@@H]1C[C@H]2O[C@@](C)([C@@H]1OC)n1c3ccccc3c3c4c(c5c6ccccc6n2c5c31)C(=O)NC4", "note": "[staurosporin]", "values": [{"measurement": "increase in caspase-3 activity over background", "setting": "caspase-3", "result": "6- to 10 fold"}, {"measurement": "SAT reporter cleavage by western analysis after induction", "setting": "F1-1-42 cells; 5 μM staurosporin", "result": "cleavage of the SAT reporter"}, {"measurement": "caspase-3 activity after induction", "setting": "F1-1-42 cells; 5 μM staurosporin", "result": "caspase-3 activation"}, {"measurement": "FRET signal change after induction", "setting": "F1-1-42 cells; 5 μM staurosporin, 24-well plate, 4×10^5 cells/0.5 ml", "result": "concomitant decrease in FRET signal"}, {"measurement": "time at which significant changes in FRET signal were first detectable", "setting": "F1-1-42 cells; after addition of staurosporin", "result": "about 8 hours"}, {"measurement": "time at which FRET signal changes were maximal", "setting": "F1-1-42 cells; post-induction with staurosporin", "result": "≤ 24", "unit": "h"}, {"measurement": "FRET signal compared to the vehicle control", "setting": "F9-1-13 cells; 96-well, three F9 parental cultures, 32,000 cells/well, 5 μM overnight", "result": "significant (P<0.05) reduction in the FRET signal"}, {"measurement": "time to measurable changes in FRET signal", "setting": "F9-1-13 cells; 60,000 cells/well, 5 μM, either fluorescence reader", "result": "≤ 4", "unit": "h"}, {"measurement": "FRET signal response to inducer treatment", "setting": "F9-1-13 cells; F9-1-13 subclone", "result": "decreased"}, {"measurement": "FRET reporter cleavage by western blot after induction", "setting": "F9-1-13 cells; staurosporin induction", "result": "significant (but not complete) cleavage of reporter"}]}]}
